Laboratory results reported in patent US11066419B2, “1H-pyrrole-2,5-dione compounds and methods of using same” (Frequency Therapeutics, Inc., priority 2016, dated 2021).

Key:
[1] = molecular target: recombinant human GSK3α (Homo sapiens, UniProt P49840); test: In vitro enzymatic assay for inhibition of GSK3α (Kinase-Glo Max luminescence); type: biochemical; details: 10 uM ATP, 0.1 mg/ml GSKtide, 30° C. 40 minutes, read-out: Potency Alpha
Description: (§1) Enzymatic activities using recombinant human GSK3 using an in vitro enzymatic assay for inhibition GSK3α and GSK3β.
(§2) The assay was performed using Kinase-Glo Max luminescence kinase assay kit (Promega). It measures kinase activity by quantitating the amount of ATP remaining in solution following a kinase reaction. The luminescent signal from the assay is correlated with the amount of ATP present and is inversely correlated with the amount of kinase activity. The compounds were diluted in 10% DMSO and 5 μl of the dilution was added to a 50 μl reaction so that the final concentration of DMSO is 1% in all of reactions. The enzymatic reactions were conducted at 30° C. for 40 minutes. The 50 μl reaction mixture contains 40 mM Tris, pH 7.4, 10 mM MgCl2, 0.1 mg/ml BSA, 2 mM DTT, 0.1 mg/ml GSKtide substrate, 10 uM ATP and GSK3. After the enzymatic reaction, 50 μl of Kinase-Glo Max Luminescence kinase assay solution (Promega) was added to each reaction and incubate the plate for 15 minutes at room temperature. Luminescence signal was measured using a BioTek Synergy 2 microplate reader.
(§3) Kinase activity assays were performed in duplicate at each concentration. The luminescence data were analyzed using the computer software, Graphpad Prism. The difference between luminescence intensities in the absence of Kinase (Lut) and in the presence of Kinase (Luc) was defined as 100% activity (Lut−Luc). Using luminescence signal (Lu) in the presence of the compound, % activity was calculated as: % activity={(Lut−Lu)/(Lut−Luc)}×100%, where Lu=the luminescence intensity in the presence of the compound (all percent activities below zero were shown zero in the table).
(§4) The values of % activity versus a series of compound concentrations were then plotted using non-linear regression analysis of Sigmoidal dose-response curve generated with the equation Y=B+(T−B)/1+10((Log EC50−X)×Hill Slope), where Y=percent activity, B=minimum percent activity, T=maximum percent activity, X=logarithm of compound and Hill Slope=slope factor or Hill coefficient. The IC50 value was determined by the concentration causing a half-maximal percent activity.

[2] = molecular target: recombinant human GSK3β (Homo sapiens, UniProt P49841); test: In vitro enzymatic assay for inhibition of GSK3β (Kinase-Glo Max luminescence); type: biochemical; details: 10 uM ATP, 0.1 mg/ml GSKtide, 30° C. 40 minutes, read-out: Potency Beta
Chain of recombinant human GSK3β (P49841 whole entry): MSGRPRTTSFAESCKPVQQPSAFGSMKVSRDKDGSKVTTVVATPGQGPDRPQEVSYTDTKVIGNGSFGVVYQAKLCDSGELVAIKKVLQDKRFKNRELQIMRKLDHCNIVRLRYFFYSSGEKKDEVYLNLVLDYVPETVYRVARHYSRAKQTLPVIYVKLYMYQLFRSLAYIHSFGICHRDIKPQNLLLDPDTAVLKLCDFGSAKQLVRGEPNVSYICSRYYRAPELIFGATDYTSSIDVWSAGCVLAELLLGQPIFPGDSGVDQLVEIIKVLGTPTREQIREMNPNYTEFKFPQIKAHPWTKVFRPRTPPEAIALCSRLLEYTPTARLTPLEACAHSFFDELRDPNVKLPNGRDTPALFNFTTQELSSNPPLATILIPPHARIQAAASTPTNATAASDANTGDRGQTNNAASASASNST
Description: as §1, §2, §3, §4

[3] = tested on: Lgr5-positive cells; test: Expansion of Lgr5-positive cells (cochlear stem cell expansion, 3D Matrigel culture, flow cytometry for Lgr5-GFP); type: cell-based, mouse; details: for EC50: Mus musculus, 240 h, Lgr5-positive cell expansion, cochlear cells of neonatal Lgr5-EGFP-IRES-Cre-ER mice, 10 days in culture, read-out: Potency; for % of Cells: percentage of Lgr5-GFP-positive cells after 10 days (D10) in culture, flow cytometer
Description: Lgr5-EGFP-IRES-Cre-ER mice (Barker et al., 2007) (http://jaxmice.jax.org/strain/008875.html) are used to analyze the effects of small molecules on cochlear stem cell expansion.
Isolation of stem cells from the inner ear: All animal studies are conducted under an approved institutional protocol according to National Institutes of Health guidelines. For experiments with neonatal mice (postnatal days 1-3), the cochleae are dissected in HBSS and the organ of Corti are separated from the stria vascularis and the modiolus. The organs of Corti are then treated with Cell Recovery Solution (Corning) for 1 h to separate cochlear epithelium from the underlying mesenchyme. Epithelia are then collected and treated with TrypLE (Life Technologies) for 15-20 minutes at 37° C. Single cells obtained by mechanical trituration are filtered (40 μm) and suspended in Matrigel (Corning) for 3D culture.
Cells are cultured in a 1:1 mixture of DMEM and F12, supplemented with Glutamax (GIBCO), N2, B27 (Invitrogen), EGF (50 ng/ml; Chemicon), bFGF (50 ng/ml; Chemicon), IGF1 (50 ng/ml; Chemicon) and the composition provided herein. Media are changed every other day.
Lgr5-positive cells are quantified after 10 days (D10) in culture in multiple conditions. Cell colonies are dissociated into single cells using TrypLE (Gibco). The cells are then stained with propidium iodide (PI) and are analyzed using a flow cytometer for Lgr5-GFP expression. The number of GFP-positive cells and the percentage of GFP-positive cells are quantified.

Chain of recombinant human GSK3α (P49840 whole entry): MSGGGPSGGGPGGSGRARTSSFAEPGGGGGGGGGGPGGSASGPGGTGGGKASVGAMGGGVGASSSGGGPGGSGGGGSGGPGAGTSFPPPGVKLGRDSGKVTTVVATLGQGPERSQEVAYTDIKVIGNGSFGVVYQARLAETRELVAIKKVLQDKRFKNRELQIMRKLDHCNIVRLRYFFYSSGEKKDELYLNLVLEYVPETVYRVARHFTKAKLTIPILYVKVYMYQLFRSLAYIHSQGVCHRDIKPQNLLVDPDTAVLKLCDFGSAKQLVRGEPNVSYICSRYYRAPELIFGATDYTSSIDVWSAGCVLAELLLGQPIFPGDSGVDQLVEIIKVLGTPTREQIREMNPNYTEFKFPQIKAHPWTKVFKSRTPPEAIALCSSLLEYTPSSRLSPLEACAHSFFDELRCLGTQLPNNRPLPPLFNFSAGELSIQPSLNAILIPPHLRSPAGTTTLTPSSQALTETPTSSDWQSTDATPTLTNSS

Row | Compound | IC50 [1] [nM] | IC50 [2] [nM] | EC50 [3] [nM] | % of Cells [3]
1 | N#Cc1cc2c3c(c1)c(C1=C(c4cnc5ccccn45)C(=O)NC1=O)cn3CCN(C(=O)N1CCC(CO)CC1)C2 [Compound I-21] | 1 to 10 | 1 to 10 | > 1000 | +++ (“+++” indicates greater than about 11%)
2 | CNC1CCN(C(=O)N2CCn3cc(C4=C(c5cnc6ccccn56)C(=O)NC4=O)c4cc(F)cc(c43)C2)CC1 [Compound I-35] | 1 to 10 | 1 to 10 | > 1000 | + (“+” indicates about 0-5%)
3 | CN(C)CC1CCN(C(=O)N2CCn3cc(C4=C(c5cnc6ccccn56)C(=O)NC4=O)c4cc(F)cc(c43)C2)CC1 [Compound I-33] | 1 to 10 | 1 to 10 | 100 to 1000 | +++ (“+++” indicates greater than about 11%)
4 | CN1CCC2(CC1)CCN(C(=O)N1CCn3cc(C4=C(c5cnc6ccccn56)C(=O)NC4=O)c4cc(C#N)cc(c43)C1)C2 [Compound I-47] | 1 to 10 | 1 to 10 |  | 
5 | CN(C)C1CCN(C(=O)N2CCn3cc(C4=C(c5cnc6ccccn56)C(=O)NC4=O)c4cc(F)cc(c43)C2)CC1 [Compound I-36] | 1 to 10 | 1 to 10 |  | 
6 | CN(C)C1CCN(C(=O)N2CCn3cc(C4=C(c5cnc6ccccn56)C(=O)NC4=O)c4cc(C#N)cc(c43)C2)CC1 [Compound I-45] | 1 to 10 | 1 to 10 |  | 
7 | O=C1NC(=O)C(c2cnc3ccccn23)=C1c1cn2c3c(cc(F)cc13)CN(C(=O)N1CC(F)(F)OC(F)(F)C1)CC2 [Compound I-24] | 1 to 10 | 1 to 10 | 1 to 100 | ++ (“++” indicates about 6-10%)
8 | Nc1cc2c3c(c1)c(C1=C(c4cnc5ccccn45)C(=O)NC1=O)cn3CCN(C(=O)N1CCCCC1)C2 [Compound I-4] | 1 to 10 | 1 to 10 | 100 to 1000 | +++ (“+++” indicates greater than about 11%)
9 | O=C1NC(=O)C(c2cnc3ccccn23)=C1c1cn2c3c(cc(F)cc13)CN(C(=O)N1CCC(CO)CC1)CC2 [Compound I-6] | 1 to 10 | 1 to 10 | 1 to 100 | +++ (“+++” indicates greater than about 11%)
10 | O=C1NC(=O)C(c2cnc3ccccn23)=C1c1cn2c3c(cc(F)cc13)CN(C(=O)NCC1CCNCC1)CC2 [Compound I-37] | 1 to 10 | 1 to 10 | > 1000 | + (“+” indicates about 0-5%)
11 | O=C1NC(=O)C(c2cnc3ccccn23)=C1c1cn2c3c(cc(C(F)(F)F)cc13)CN(C(=O)N1CCC(F)(F)CC1)CC2 [Compound I-17] | 1 to 10 | 1 to 10 | > 1000 | + (“+” indicates about 0-5%)
12 | C#Cc1cc2c3c(c1)c(C1=C(c4cnc5ccccn45)C(=O)NC1=O)cn3CCN(C(=O)N1CCCCC1)C2 [Compound I-3] | 1 to 10 | 1 to 10 | 1 to 100 | +++ (“+++” indicates greater than about 11%)
13 | O=C1NC(=O)C(c2cnc3ccccn23)=C1c1cn2c3c(cc(F)cc13)CN(C(=O)N1CCCC(F)(F)C1)CC2 [Compound I-12] | 1 to 10 | 1 to 10 | 1 to 100 | +++ (“+++” indicates greater than about 11%)
14 | O=C1NC(=O)C(c2cnc3ccccn23)=C1c1cn2c3c(cc(F)cc13)CN(C(=O)N1CC(F)(F)C(F)(F)C(F)(F)C1)CC2 [Compound I-22] | 1 to 10 | 1 to 10 | 1 to 100 | ++ (“++” indicates about 6-10%)
15 | O=C1NC(=O)C(c2cnc3ccccn23)=C1c1cn2c3c(cc(C(F)(F)F)cc13)CN(C(=O)N1CCCCC1)CC2 [Compound I-1] | 1 to 10 | 1 to 10 | 1 to 100 | +++ (“+++” indicates greater than about 11%)
16 | N#Cc1cc2c3c(c1)c(C1=C(c4cnc5ccccn45)C(=O)NC1=O)cn3CCN(C(=O)N1CCCC(F)(F)C1)C2 [Compound I-15] | 1 to 10 | 1 to 10 | > 1000 | ++ (“++” indicates about 6-10%)
17 | NCC1CCN(C(=O)N2CCn3cc(C4=C(c5cnc6ccccn56)C(=O)NC4=O)c4cc(F)cc(c43)C2)CC1 [Compound I-19] | 1 to 10 | 1 to 10 | > 1000 | +++ (“+++” indicates greater than about 11%)
18 | O=C1NC(=O)C(c2cnc3ccccn23)=C1c1cn2c3c(cc(F)cc13)CN(C(=O)N1CCC(C(O)C(F)(F)F)CC1)CC2 (stereo not drawn) [Compound I-31] | 1 to 10 | 1 to 10 | 1 to 100 | +++ (“+++” indicates greater than about 11%)
19 | O=C1NC(=O)C(c2cnc3ccccn23)=C1c1cn2c3c(cc(F)cc13)CN(C(=O)N1C[C@H]3C[C@@H]1CN3)CC2 [Compound I-13] | 1 to 10 | 1 to 10 | > 1000 | +++ (“+++” indicates greater than about 11%)
20 | O=C1NC(=O)C(c2cnc3ccccn23)=C1c1cn2c3c(cc(F)c(F)c13)CN(C(=O)N1CCCCC1)CC2 [Compound I-48] | 1 to 10 | 1 to 10 | 1 to 100 | ++ (“++” indicates about 6-10%)
21 | O=C1NC(=O)C(c2cnc3ccccn23)=C1c1cn2c3c(cc(C(F)(F)F)cc13)CN(C(=O)N1CCOCC(F)(F)C1)CC2 [Compound I-44] | 1 to 10 | 1 to 10 | 100 to 1000 | +++ (“+++” indicates greater than about 11%)
22 | O=C1NC(=O)C(c2cnc3ccccn23)=C1c1cn2c3c(cc(F)cc13)CN(C(=O)N1CCC(F)(F)CC1)CC2 [Compound I-7] | 1 to 10 | 1 to 10 | 1 to 100 | ++ (“++” indicates about 6-10%)
23 | N#Cc1cc2c3c(c1)c(C1=C(c4cnc5ccccn45)C(=O)NC1=O)cn3CCN(C(=O)N1CCCCC1)C2 [Compound I-2] | 1 to 10 | 1 to 10 | 1 to 100 | +++ (“+++” indicates greater than about 11%)
24 | NC1CCN(C(=O)N2CCn3cc(C4=C(c5cnc6ccccn56)C(=O)NC4=O)c4cc(F)cc(c43)C2)CC1 [Compound I-34] | 1 to 10 | 1 to 10 | > 1000 | ++ (“++” indicates about 6-10%)
25 | O=C1NC(=O)C(c2cnc3ccccn23)=C1c1cn2c3c(cc(F)cc13)CN(C(=O)N1CCC(F)(F)C(O)C1)CC2 (stereo not drawn) [Compound I-25] | 1 to 10 | 1 to 10 |  | 
26 | CN1CCC(CN(C)C(=O)N2CCn3cc(C4=C(c5cnc6ccccn56)C(=O)NC4=O)c4cc(C#N)cc(c43)C2)CC1 [Compound I-46] | 1 to 10 | 1 to 10 |  | 
27 | O=C1NC(=O)C(c2cnc3ccccn23)=C1c1cn2c3c(cc(C(F)(F)F)cc13)CN(C(=O)N1CC3CCC(C1)O3)CC2 [Compound I-18] | 1 to 10 | 1 to 10 |  | 
28 | CN1CCC(CN(C)C(=O)N2CCn3cc(C4=C(c5cnc6ccccn56)C(=O)NC4=O)c4cc(F)cc(c43)C2)CC1 [Compound I-39] | 1 to 10 | 1 to 10 |  | 
29 | CN1CCC2(CC1)CCN(C(=O)N1CCn3cc(C4=C(c5cnc6ccccn56)C(=O)NC4=O)c4cc(F)cc(c43)C1)C2 [Compound I-42] | 1 to 10 | 1 to 10 |  | 
30 | O=C1NC(=O)C(c2nnc3ccccn23)=C1c1cn2c3c(cc(F)cc13)CN(C(=O)N1CCCCC1)CC2 [Compound I-28] | 1 to 10 | 1 to 10 |  | 
